Laboratory results taken from patent EP4205737A1, “COMPOSITION FOR PREVENTION, AMELIORATION, OR TREATMENT OF INFLAMMATORY DISEASES OR IMMUNE DISEASES COMPRISING GANCAONIN N AS ACTIVE INGREDIENT” (UNIVERSITY-INDUSTRY COOPERATION GROUP OF KYUNG HEE …, priority 2020, dated 2022).

Legend:
[1] = test system: RAW264.7 cells; assay: Cell viability analysis (MTT), RAW264.7 cells; type: cell-based, murine; settings: Raw264.7 cells, 5, 10, 20, 40 µM, 24 hours, compared to the control group (FIG. 1A)
Protocol: (§1) RAW264.7 murine macrophage cells were purchased from Korean Cell Line Bank (in Seoul, South Korea). A549 human alveolar basal epithelial cells were purchased from American Type Culture Collection (in ATCC, MD, USA). The cells were cultured in DMEM medium (manufactured by Corning Inc., NY, USA) containing 10% FBS (manufactured by Gibco, NY, USA) and 1X antibiotic-antimycotic solution (manufactured by ABAM, Corning Inc., NY, USA) under conditions of 37°C and 5% CO2.
(§2) To evaluate the cytotoxicity of gancaonin N, RAW264.7 cells and A549 cells were dispensed into 96-well plates (1 × 10^4 cells/well) and cultured under conditions of 37°C and 5% CO2. After the culturing, the cells were treated with gancaonin N at concentrations of 5, 10, 20, or 40 µM for 24 hours, and MTT solution (5 mg/mL) was added to each well. After adding 100 µL of dimethyl sulfoxide (DMSO, manufactured by Sigma-Aldrich, St. Louis, MO, USA), the absorbance was measured at 540 nm using a microplate reader (manufactured by Bio-Rad Hercules, CA, USA).
(§3) To examine the cytotoxicity of gancaonin N, the inventors treated Raw264.7 cells and A549 cells with gancaonin N according to the methods of Examples 1 to 4 and then measured cell viability.

[2] = test system: A549 cells; assay: Cell viability analysis (MTT), A549 cells; type: cell-based, human; settings: A549 cells, 5, 10, 20, 40 µM, 24 hours, compared to the control group (FIG. 1B)
Protocol: as §1, §2, §3

[3] = test system: PGE2; assay: Western blotting of PGE2 in LPS-stimulated RAW264.7 cells; type: cell-based, murine; settings: LPS 1 µg/mL, 5 to 40 µM, as treatment concentration increased (FIG. 2B)
Protocol: (§4) RAW264.7 cells and A549 cells were dispensed into 6-well plates (1 × 10^6 cells/well) and cultured under conditions of 37°C and 5% CO2. After the culturing, the Raw 264.7 cells were treated with 1 µg/mL of lipopolysaccharide (LPS) and the A549 cells were treated with 5 µg/mL of lipopolysaccharide (LPS) and with 5 µM to 40 µM of gancaonin N, and the cells were cultured for 24 hours or 6 hours. Then, the cells were lysed using a lysis buffer. In addition, the left lung extracted from each mouse was lysed using RIPA buffer. SDS-PAGE electrophoresis was performed on the cell and tissue lysates to separate proteins by side, and 5% bovine serum albumin was used for culturing and for blocking antibodies against PGE2 (1:500), IL-1β (1:500), IL-6 (1:500), TNF-α (1:500), i-NOS (1:500), COX-2 (1:1000), P-ERK1/2 (1:1000), ERK1/2 (1:3000), P-p38 (1:1000), p38 (1:3000), NF-κB p65 (1:1000), Lamin B1 (1:1000), and β-actin (1: 5,000).
To investigate the anti-inflammatory effect of gancaonin N, the inventors treated Raw264.7 cells with LPS and Gancaonin N, as described in Examples 1 to 6, and evaluated the expression level of inflammation-inducing factors. Thus, the inhibitory effect of gancaonin N on inflammation-related factors was specifically confirmed.

[4] = test system: extracellular signal-regulated kinase (ERK); assay: MAPK/NF-κB signaling pathway: ERK in LPS-stimulated A549 cells; type: cell-based, human
Protocol: as §4
(§5) To identify through which pathway the anti-inflammatory response occurs, the role of gancaonin N in the MAPK/NF-κB signaling pathway was investigated. […]

[5] = test system: p38; assay: MAPK/NF-κB signaling pathway: p38 in LPS-stimulated A549 cells; type: cell-based, human
Protocol: as §4, §5

Structure (SMILES): COc1ccc(-c2coc3cc(O)c(CC=C(C)C)c(O)c3c2=O)c(O)c1 [gancaonin N, 5,7-dihydroxy-3-(2-hydroxy-4-methoxyphenyl)-6-(3-methylbut-2-enyl)chromen-4-one]
- cell viability [1]: did not decrease
- cell viability [2]: did not decrease
- expression level of protein of PGE2 [3]: significantly decreased
- activity/protein expression levels of ERK ([4]; 5µM to 40 µM 2 hours before LPS treatment (FIG. 5A)): significantly reduced
- amount of gancaonin N at which the inhibitory effect on the activity/protein expression levels of ERK was most excellent ([4]; LPS, tested 5µM to 40 µM): 40 µM
- activity/protein expression levels of p38 ([5]; 5µM to 40 µM 2 hours before LPS treatment (FIG. 5B)): significantly reduced
- amount of gancaonin N at which the inhibitory effect on the activity/protein expression levels of p38 was most excellent ([5]; LPS, tested 5µM to 40 µM): 20 µM
